Results from patent US9018208B2, “Heterocycles as potassium channel modulators” (Icagen Inc., priority 2007, dated 2015).
pEC50: −log10 of the molar value.

These compounds were tested on SH-SY5Y M-currents (KCNQ2, KCNQ3 and KCNQ5) (assay: SH-SY5Y native cell line FLIPR assay (voltage-sensitive dye DiBAC)). Details: FLIPR assay, SH-SY5Y native cell line; Table 1; read-out: SH-SY5Y EC50.
Format: cell-based, mouse neuroblastoma, rat glioma hybrid cell line
From the text: SH-SY5Y cells, a mouse neuroblastoma, rat glioma hybrid cell line, functionally express M-currents (Robbins et al., J. Physiol. 451: 159-85 (1992). SH-SY5Y M-currents are likely comprised, at least in part, of KCNQ2, KCNQ3 and KCNQ5, since these genes are reportedly robustly expressed in differentiated SH-SY5Y cells (Selyanko et al., J. Neurosci. 19(18): 7742-56 (1999); Schroeder et al., J. Biol. Chem. 275(31): 24089-95 (2000)) and KCNQ3 dominant-negative constructs reduce M-current density in these cells (Selyanko et al., J. Neurosci. 22(5): RC212 (2002).
SH-SY5Y were maintained in DMEM (high glucose) supplemented with 10% fetal bovine serum, 0.05 mM pyridoxine, 0.1 mM hypoxanthine, 400 nM aminopterin, […], 50 μgml^−1 gentamycin and 10 mM HEPES, in an incubator at 37° C. with a humidified atmosphere of 5% CO2. Cells were plated in 96 well plates differentiated by addition of 10 μM PGE1 and 50 μM isomethylbutylxanthine to the growth media prior to study.
Differentiated SH-SY5Y cells were loaded with voltage-sensitive dye by incubation in Earls Balanced Salt Solution (EBSS) containing […] DiBAC for 1 h. Following loading, drug solution containing […] DiBAC was added to each well. Changes in fluorescence were measured every 30 s for 25 min. The maximum change in fluorescence was measured and expressed as a percentage of the maximum response obtained in the presence of a positive control agent.

`CC(C)(C)CC(=O)Nc1nc2ccc(C(F)(F)F)cn2c1C1CCCC1` [Compound 48, N-(3-cyclopentyl-6-(trifluoromethyl)imidazo[1,2-a]pyridin-2-yl)-3,3-dimethylbutanamide] and `CC(C)(C)Cc1c(NC(=O)CC2CCCC2)nc2ccc(C(F)(F)F)cn12` [Compound 72, 2-cyclopentyl-N-(3-neopentyl-6-(trifluoromethyl)imidazo[1,2-a]pyridin-2-yl)acetamide] cannot be ordered by pEC50: > 6.30 for the first, > 6.30 for the second.

`O=C(Cc1ccccc1)Nc1nc2ccc(C(F)(F)F)cn2c1C1CCCC1` [Compound 49, N-(3-cyclopentyl-6-(trifluoromethyl)imidazo[1,2-a]pyridin-2-yl)-2-phenyl acetamide] and `O=C(Cc1ccc(F)cc1)Nc1nc2ccc(C(F)(F)F)cn2c1C1CCCC1` [Compound 50, N-(3-cyclopentyl-6-(trifluoromethyl)imidazo[1,2-a]pyridin-2-yl)-2-(4-fluorophenyl)acetamide] cannot be ordered by pEC50: > 6.30 for the first, > 6.30 for the second.

`O=C(Nc1nc2ccc(C(F)(F)F)cn2c1CC1CCCCC1)C1CCCC1` [Compound 52, N-(3-(cyclohexylmethyl)-6-(trifluoromethyl)imidazo[1,2-a]pyridin-2-yl)cyclopentanecarboxamide] and `O=C(Nc1nc2ccc(C(F)(F)F)cn2c1C1CCCCC1)C1CCCC1` [Compound 54, N-(3-cyclohexyl-6-(trifluoromethyl)imidazo[1,2-a]pyridin-2-yl)cyclopentanecarboxamide] cannot be ordered by pEC50: > 6.30 for the first, > 6.30 for the second.

`CC(C)CCc1c(NC(=O)C2CCCC2)nc2ccc(C(F)(F)F)cn12` [Compound 53, N-(3-isopentyl-6-(trifluoromethyl)imidazo[1,2-a]pyridin-2-yl)cyclopentanecarboxamide] and `CC(C)(C)Cc1c(NC(=O)C2CCCCC2)nc2ccc(C(F)(F)F)cn12` [Compound 59, N-(3-neopentyl-6-(trifluoromethyl)imidazo[1,2-a]pyridin-2-yl)cyclohexanecarboxamide] cannot be ordered by pEC50: > 6.30 for the first, > 6.30 for the second.

`O=C(Nc1nc2ccc(C(F)(F)F)cn2c1C1CCCC1)C1CCCC1` [Compound 55, N-(3-cyclopentyl-6-(trifluoromethyl)imidazo[1,2-a]pyridin-2-yl)cyclopentanecarboxamide] and `O=C(Nc1nc2ccc(C(F)(F)F)cn2c1C1CC1)C1CCC(F)(F)CC1` [Compound 75, N-(3-cyclopropyl-6-(trifluoromethyl)imidazo[1,2-a]pyridin-2-yl)-4,4-difluorocyclohexanecarboxamide] cannot be ordered by pEC50: > 6.30 for the first, > 6.30 for the second.

`CC1(CC(=O)Nc2nc3ccc(C(F)(F)F)cn3c2C2CCCC2)CCCC1` [Compound 56, N-(3-cyclopentyl-6-(trifluoromethyl)imidazo[1,2-a]pyridin-2-yl)-2-(1-methylcyclopentyl)acetamide] and `CC(CC(=O)Nc1nc2ccc(C(F)(F)F)cn2c1C1CC1)C(F)(F)F` (stereo not drawn) [Compound 69, N-(3-cyclopropyl-6-(trifluoromethyl)imidazo[1,2-a]pyridin-2-yl)-4,4,4-trifluoro-3-methylbutanamide] cannot be ordered by pEC50: > 6.30 for the first, > 6.30 for the second.

First: CC(C)(C)Cc1c(NC(=O)CC2CC2)nc2ccc(C(F)(F)F)cn12 [Compound 57, 2-cyclopropyl-N-(3-neopentyl-6-(trifluoromethyl)imidazo[1,2-a]pyridin-2-yl)acetamide]
Second: CC(C)(C)Cc1c(NC(=O)C2CC2)nc2ccc(C(F)(F)F)cn12 [Compound 64, N-(3-neopentyl-6-(trifluoromethyl)imidazo[1,2-a]pyridin-2-yl)cyclopropanecarboxamide]
The pEC50 of the first is higher: > 6.30 for the first, 5.52 to 6.30 for the second. The first is the more potent here.

First: CCC(C)CC(=O)Nc1nc2ccc(C(F)(F)F)cn2c1CC(C)(C)C (stereo not drawn) [Compound 58, 3-methyl-N-(3-neopentyl-6-(trifluoromethyl)imidazo[1,2-a]pyridin-2-yl)pentanamide]
Second: CC(C)CC(=O)Nc1nc2ccc(C(F)(F)F)cn2c1CC(C)(C)C [Compound 63, 3-methyl-N-(3-neopentyl-6-(trifluoromethyl)imidazo[1,2-a]pyridin-2-yl)butanamide]
The pEC50 of the first is higher: > 6.30 for the first, 5.52 to 6.30 for the second. The first is the more potent here.

Compared with `CC(C)(C)Cc1c(NC(=O)CC(F)(F)F)nc2ccc(C(F)(F)F)cn12` [Compound 60, 3,3,3-trifluoro-N-(3-neopentyl-6-(trifluoromethyl)imidazo[1,2-a]pyridin-2-yl)propanamide], `CC(=O)Nc1nc2ccc(C(F)(F)F)cn2c1CC(C)(C)C` [Compound 62, N-(3-neopentyl-6-(trifluoromethyl)imidazo[1,2-a]pyridin-2-yl)acetamide] is lower in pEC50: > 6.30 for the first, 5.00 to 5.52 for the second.

`CC(C)(C)Cc1c(NC(=O)Cc2ccc(C(F)(F)F)cc2)nc2ccc(C(F)(F)F)cn12` [Compound 61, N-(3-neopentyl-6-(trifluoromethyl)imidazo[1,2-a]pyridin-2-yl)-2-(4-(trifluoromethyl)phenyl)acetamide] and `O=C(Cc1ccc(F)cc1)Nc1nc2ccc(C(F)(F)F)cn2c1C1CC1` [Compound 70, N-(3-cyclopropyl-6-(trifluoromethyl)imidazo[1,2-a]pyridin-2-yl)-2-(4-fluorophenyl)acetamide] cannot be ordered by pEC50: > 6.30 for the first, > 6.30 for the second.

First: CC(C)(C)CC(=O)Nc1nc2ccc(F)cn2c1CC1CCCCC1 [Compound 66, N-(3-(cyclohexylmethyl)-6-fluoroimidazo[1,2-a]pyridin-2-yl)-3,3-dimethylbutanamide]
Second: Cc1cccc2nc(NC(=O)CC(C)(C)C)c(C3CC3)n12 [Compound 81, N-(3-cyclopropyl-5-methylimidazo[1,2-a]pyridin-2-yl)-3,3-dimethylbutanamide]
The pEC50 of the first is higher: > 6.30 for the first, 5.00 to 5.52 for the second. The first is the more potent here.

Compared with `Cc1ccc2nc(NC(=O)CC(C)(C)C)c(CC(C)(C)C)n2n1` [Compound 67, 3,3-dimethyl-N-(6-methyl-3-neopentylimidazo[1,2-b]pyridazin-2-yl)butanamide], `Cc1ccc2nc(NC(=O)CC(C)(C)C)c(C3CC3)n2n1` [Compound 74, N-(3-cyclopropyl-6-methylimidazo[1,2-b]pyridazin-2-yl)-3,3-dimethylbutanamide] is lower in pEC50: > 6.30 for the first, 5.52 to 6.30 for the second. The first is the more potent here.

`CC(C)(C)Cc1c(NC(=O)CC2CCCC2(F)F)nc2ccc(C(F)(F)F)cn12` (stereo not drawn) [Compound 71, 2-(2,2-difluorocyclopentyl)-N-(3-neopentyl-6-(trifluoromethyl)imidazo[1,2-a]pyridin-2-yl)acetamide] and `CC(C)(C)Cc1c(NC(=O)C2CCC(F)(F)CC2)nc2ccc(C(F)(F)F)cn12` [Compound 73, 4,4-difluoro-N-(3-neopentyl-6-(trifluoromethyl)imidazo[1,2-a]pyridin-2-yl)cyclohexanecarboxamide] cannot be ordered by pEC50: > 6.30 for the first, > 6.30 for the second.

Compared with `Cc1ccc2nc(NC(=O)CC(C)C(F)(F)F)c(C3CC3)n2n1` (stereo not drawn) [Compound 76, N-(3-cyclopropyl-6-methylimidazo[1,2-b]pyridazin-2-yl)-4,4,4-trifluoro-3-methylbutanamide], `Cc1ccc2nc(NC(=O)C3CCC(F)(F)CC3)c(C3CC3)n2n1` [Compound 78, N-(3-cyclopropyl-6-methylimidazo[1,2-b]pyridazin-2-yl)-4,4-difluorocyclohexanecarboxamide] is higher in pEC50: 5.00 to 5.52 for the first, 5.52 to 6.30 for the second. The second is the more potent here.

Compared with `O=C(Cc1ccc(F)c(F)c1)Nc1nc2ccc(C(F)(F)F)cn2c1C1CC1` [Compound 77, N-(3-cyclopropyl-6-(trifluoromethyl)imidazo[1,2-a]pyridin-2-yl)-2-(3,4-difluorophenyl)acetamide], `O=C(Cc1ccc(F)cc1F)Nc1nc2ccc(C(F)(F)F)cn2c1C1CC1` [Compound 79, N-(3-cyclopropyl-6-(trifluoromethyl)imidazo[1,2-a]pyridin-2-yl)-2-(2,4-difluorophenyl)acetamide] is lower in pEC50: > 6.30 for the first, 5.52 to 6.30 for the second.

First: O=C(Cc1cc(F)cc(F)c1)Nc1nc2ccc(C(F)(F)F)cn2c1C1CC1 [Compound 80, N-(3-cyclopropyl-6-(trifluoromethyl)imidazo[1,2-a]pyridin-2-yl)-2-(3,5-difluorophenyl)acetamide]
Second: O=C(Nc1nc2ccc(C(F)(F)F)cn2c1C1CC1)C1CC1(F)F (stereo not drawn) [Compound 85, N-(3-cyclopropyl-6-(trifluoromethyl)imidazo[1,2-a]pyridin-2-yl)-2,2-difluorocyclopropanecarboxamide]
The pEC50 of the first is higher: > 6.30 for the first, 5.52 to 6.30 for the second.

`CC(C)(C)CC(=O)Nc1nc2ccc(C(F)(F)F)cn2c1-c1nccs1` [Compound 82, 3,3-dimethyl-N-(3-(thiazol-2-yl)-6-(trifluoromethyl)imidazo[1,2-a]pyridin-2-yl)butanamide] and `CC(CC(=O)Nc1nc2ccc(C(F)(F)F)cn2c1-c1nccs1)C(F)(F)F` (stereo not drawn) [Compound 83, 4,4,4-trifluoro-3-methyl-N-(3-(thiazol-2-yl)-6-(trifluoromethyl)imidazo[1,2-a]pyridin-2-yl)butanamide] fall in the same range of pEC50: 5.00 to 5.52 for the first, 5.00 to 5.52 for the second.

Compared with `O=C(Cc1ccc(F)cc1)Nc1nc2ccc(C(F)(F)F)cn2c1-c1nccs1` [Compound 84, 2-(4-fluorophenyl)-N-(3-(thiazol-2-yl)-6-(trifluoromethyl)imidazo[1,2-a]pyridin-2-yl)acetamide], `CC(CC(=O)Nc1nc2ccccn2c1CC(C)(C)C)C(F)(F)F` (stereo not drawn) [Compound 86, 4,4,4-trifluoro-3-methyl-N-(3-neopentylimidazo[1,2-a]pyridin-2-yl)butanamide] is lower in pEC50: > 6.30 for the first, 5.52 to 6.30 for the second.
